Measurements as given in publication PMC12133982, “Predominant T-cell epitopes of SARS-CoV-2 restricted by multiple prevalent HLA-B and HLA-C allotypes in Northeast Asia” (Frontiers in Immunology, 2025).
Peptide text beside a SMILES is read from it.

How the values were obtained:
HLA-B1302 = HLA-B1302 (Homo sapiens, UniProt P01889, A65T/A93T/A95T/D138N/D201E/D98Y/E176V/E204Q/E69M/E70A/G107R/K202T/L105A/L119W/N104T/N87E/Q94N/R106L/R155S/R169L/R180L/S101N/S121T/S35A/S48T/V127L/V36M/Y140L/Y91S); assay: Competitive peptide binding assay, CIR-B1302; conditions: HMy2.CIR-B1302 cells, reference Cy5-MMWYWGPSL, class from inhibition at 5 and 15 μM, flow cytometry MFI; read-out: Binding affinity with HLA-B1302
Procedure: (§1) Then, competitive peptide binding assays were performed.

HLA-B3501 = HLA-B3501 (Homo sapiens, UniProt P01889, A329T/A93T/A95T/C349S/D201E/D98Y/E176V/E187L/E204Q/E69T/I218V/K202T/L119I/Q94N/R155S/R180L/S121R/S35A/S48A/T118I/V127L/V306I/V36M/Y140S/Y91F); assay: Competitive peptide binding assay, CIR-B3501; conditions: HMy2.CIR-B3501 cells, reference Cy5-[…], class from inhibition at 5 and 15 μM, flow cytometry MFI; read-out: Binding affinity with HLA-B3501
Procedure: as §1

HLA-B1501 = HLA-B1501 (Homo sapiens, UniProt P01889, A329T/A93T/A95T/C349S/D201E/D98Y/E187L/E204Q/E69M/E70A/K202T/N87E/Q94N/R155S/R180W/S121R/S35A/S48A/V306I/V36M/Y140S/Y91S); assay: Competitive peptide binding assay, CIR-B1501; conditions: HMy2.CIR-B1501 cells, reference Cy5-[…], class from inhibition at 5 and 15 μM, flow cytometry MFI; read-out: Binding affinity with HLA-B1501
Procedure: as §1

HLA-B5801 = HLA-B5801 (Homo sapiens, UniProt P01889, A329T/C349S/D201E/D98Y/E176V/E187L/E204Q/E69T/G107R/I218V/I90N/K202T/L105A/L119I/N104I/N87E/Q89R/Q94S/R106L/R155S/R180L/R86G/S101N/S121R/S35A/S48A/T118I/V127L/V306I/V36M/Y140S/Y91M); assay: Competitive peptide binding assay, CIR-B5801; conditions: HMy2.CIR-B5801 cells, reference Cy5-[…], class from inhibition at 5 and 15 μM, flow cytometry MFI; read-out: Binding affinity with HLA-B5801
Procedure: as §1

HLA-B1301 = HLA-B1301 (Homo sapiens, UniProt P01889, A65T/A93T/A95T/D138N/D201E/D98Y/E176V/E204Q/E69M/E70A/G107R/K202T/L105A/L119I/N104T/N87E/Q94N/R106L/R155S/R169L/R180L/S101N/S121R/S35A/S48T/T118I/V127L/V36M/Y140L/Y91S); assay: Competitive peptide binding assay, CIR-B1301; conditions: HMy2.CIR-B1301 cells, reference Cy5-[…], class from inhibition at 5 and 15 μM, flow cytometry MFI; read-out: Binding affinity with HLA-B1301
Procedure: as §1

HLA-B1502 = HLA-B1502 (Homo sapiens, UniProt P01889, A329T/A93T/A95T/C349S/D201E/D98Y/E187L/E204Q/E69M/E70A/H137Y/K202T/L119I/Q94N/R155S/R180L/S121R/S35A/S48A/T118I/V306I/V36M/Y140S/Y91S); assay: Competitive peptide binding assay, CIR-B1502; conditions: HMy2.CIR-B1502 cells, reference Cy5-[…], class from inhibition at 5 and 15 μM, flow cytometry MFI; read-out: Binding affinity with HLA-B1502
Procedure: as §1

HLA-B4601 = HLA-B4601 (Homo sapiens, UniProt P01889, A329T/A93R/C349S/D201E/E100V/E187L/E204Q/E69M/E70A/I90K/K202T/N87E/R155S/R180W/S121R/S35A/S48A/V306I/V36M/Y140S); assay: Competitive peptide binding assay, CIR-B4601; conditions: for IC50: HMy2.CIR-B4601 cells, reference Cy5-[…], class from inhibition at 5 and 15 μM, flow cytometry MFI, read-out: Binding affinity with HLA-B4601
Procedure: as §1

| Structure (SMILES) | IC50 (HLA-B1302) | IC50 (HLA-B3501) | IC50 (HLA-B1501) | IC50 (HLA-B5801) | IC50 (HLA-B1301) | IC50 (HLA-B1502) | IC50 (HLA-B4601) | inhibition at 5 µM (HLA-B4601; read-out: Inhibition % of Cy5-reference peptide binding, CIR-B4601, 5μM peptide) | inhibition at 15 µM (HLA-B4601; read-out: Inhibition % of Cy5-reference peptide binding, CIR-B4601, 15μM peptide) |
| --- | --- | --- | --- | --- | --- | --- | --- | --- | --- |
| CC(C)C[C@H](N)C(=O)N1CCC[C@H]1C(=O)N[C@@H](CC(N)=O)C(=O)N[C@@H](CC(N)=O)C(=O)N[C@H](C(=O)N[C@@H](C)C(=O)N[C@@H](CO)C(=O)N[C@@H](Cc1c[nH]c2ccccc12)C(=O)N[C@@H](Cc1ccccc1)C(=O)O)[C@@H](C)O [Epitope Y17] (H-LPNNTASWF-OH; N-terminus and C-terminus assumed) | > 15 µM | < 5 µM | > 15 µM | > 15 µM |  |  |  |  |  |
| CC[C@H](C)[C@H](NC(=O)[C@@H](NC(=O)[C@H](CC(C)C)NC(=O)[C@H](CCC(=O)O)NC(=O)[C@H](CO)NC(=O)[C@H](CCC(=O)O)NC(=O)[C@H](CC(C)C)NC(=O)[C@H](CC(C)C)NC(=O)[C@@H]1CCCN1C(=O)[C@@H](N)CCCNC(=N)N)C(C)C)C(=O)O [Epitope Y43] (H-RPLLESELVI-OH; N-terminus and C-terminus assumed) |  |  |  |  | 5 to 15 µM |  |  |  |  |
| CSCC[C@H](NC(=O)[C@H](CO)NC(=O)[C@H](CCCNC(=N)N)NC(=O)[C@@H](NC(=O)[C@H](CCCNC(=N)N)NC(=O)[C@H](C)NC(=O)[C@@H](N)Cc1ccccc1)[C@@H](C)O)C(=O)N[C@@H](Cc1c[nH]c2ccccc12)C(=O)N[C@@H](CO)C(=O)N[C@@H](Cc1ccccc1)C(=O)O [Epitope Y47] (H-FARTRSMWSF-OH; N-terminus and C-terminus assumed) | > 15 µM | < 5 µM |  | > 15 µM |  | < 5 µM | > 15 µM |  |  |
| C[C@H](NC(=O)[C@H](Cc1ccc(O)cc1)NC(=O)[C@H](C)NC(=O)[C@@H](N)Cc1ccccc1)C(=O)N[C@@H](CC(N)=O)C(=O)N[C@@H](CCCNC(=N)N)C(=O)N[C@@H](CC(N)=O)C(=O)N[C@@H](CCCNC(=N)N)C(=O)N[C@@H](Cc1ccccc1)C(=O)O [Epitope Y49] (H-FAYANRNRF-OH; N-terminus and C-terminus assumed) | > 15 µM | < 5 µM | > 15 µM | 5 to 15 µM |  |  |  |  |  |
| CC(C)C[C@H](NC(=O)[C@H](CC(C)C)NC(=O)[C@H](CC(C)C)NC(=O)[C@H](C)NC(=O)[C@H](CC(C)C)NC(=O)[C@H](C)NC(=O)[C@H](C)NC(=O)[C@H](CC(=O)O)NC(=O)CN)C(=O)O [Epitope Y65] (H-GDAALALLL-OH; N-terminus and C-terminus assumed) |  | > 15 µM | 5 to 15 µM | 5 to 15 µM | < 5 µM |  |  |  |  |
| CC[C@H](C)[C@H](NC(=O)[C@H](CCC(N)=O)NC(=O)[C@@H](N)CC(C)C)C(=O)N1CCC[C@H]1C(=O)N[C@@H](Cc1ccccc1)C(=O)N[C@@H](C)C(=O)N[C@@H](CCSC)C(=O)N[C@@H](CCC(N)=O)C(=O)N[C@@H](CCSC)C(=O)O [Epitope Y81] (H-LQIPFAMQM-OH; N-terminus and C-terminus assumed) |  |  | > 15 µM |  | < 5 µM |  | > 15 µM | 9.21% | 44% |
| CC[C@H](C)[C@H](NC(=O)[C@H](CO)NC(=O)[C@H](CCC(N)=O)NC(=O)[C@H](CO)NC(=O)[C@H](C)NC(=O)[C@@H](N)C(C)C)C(=O)N[C@H](C(=O)N[C@@H](C)C(=O)N[C@@H](Cc1ccc(O)cc1)C(=O)O)[C@@H](C)CC [Epitope Y151] (H-VASQSIIAY-OH; N-terminus and C-terminus assumed) | < 5 µM | < 5 µM | > 15 µM | > 15 µM |  |  |  |  |  |
